Values quoted from earlier work, collected in patent US20070298029A1, “Treatment of Neurodegenerative Diseases by the Use of Degs Inhibitors” (priority 2004, published 2007).

Biological target: T1, dihydroceramide desaturase (Rattus norvegicus, UniProt Q5XIF5)
T1 sequence (Q5XIF5 1-323): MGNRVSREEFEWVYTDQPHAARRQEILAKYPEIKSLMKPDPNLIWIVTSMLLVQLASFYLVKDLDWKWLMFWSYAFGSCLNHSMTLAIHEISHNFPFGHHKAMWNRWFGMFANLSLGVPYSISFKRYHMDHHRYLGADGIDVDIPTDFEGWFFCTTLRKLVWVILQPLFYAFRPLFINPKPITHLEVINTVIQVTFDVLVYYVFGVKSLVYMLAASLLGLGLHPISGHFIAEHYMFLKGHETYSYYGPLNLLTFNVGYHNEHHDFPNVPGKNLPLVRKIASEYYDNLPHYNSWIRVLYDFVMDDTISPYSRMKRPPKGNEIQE
Conditions: competitive inhibitor

Question: For `CCCCCCCCCCCCCC1=C([C@H](O)[C@@H](CO)NC(=O)CCCCCCC)C1` [GT11, N-[(1R,2S)-2-hydroxy-1-hydroxymethyl-2-(2-tridecyl-1-cyclopropenyl)ethyl]octanamide], which Ki is on record?
Answer: 6 µM
